Activity calls are given as the source filed them. No cut-off for these calls is given here.
Experiments:
[1] = molecular target: Microtubule-associated protein tau (Homo sapiens) (UniProt P10636); test: Inhibition of tau K18 domain (unknown origin) assessed as inhibition of heparin-induced aggregation by measuring protein aggregation rate at 10 uM by thioflavin-T fluorescence assay relative to control; design: scale not given: the % may be the effect or the level left
Homo sapiens = species: Homo sapiens; test: Inhibition of hexahistidine-tagged tau K18 domain C291S/C322S mutant (unknown origin) expressed in Escherichia coli BL21 (DE3) assessed as inhibition of heparin-induced aggregation by measuring protein aggregation rate at 10 uM by thioflavin-T fluorescence assay relative to control; design: scale not given: the % may be the effect or the level left
[2] = molecular target: Microtubule-associated protein tau (Homo sapiens) (UniProt P10636); test: Binding affinity to tau K18 domain (unknown origin) assessed as cysteine labelling efficiency by measuring free thiol ratio at 200 uM incubated for 24 hrs by Ellmans method relative to control
[3] = molecular target: Microtubule-associated protein tau (Homo sapiens) (UniProt P10636); test: Inhibition of tau K18 domain (unknown origin) assessed as inhibition of heparin-induced aggregation by measuring protein aggregation rate at 50 uM by thioflavin-T fluorescence assay relative to control; design: scale not given: the % may be the effect or the level left
[4] = molecular target: Microtubule-associated protein tau (Homo sapiens) (UniProt P10636); test: Inhibition of tau K18 domain (unknown origin) assessed as inhibition of heparin-induced aggregation by measuring protein aggregation rate at 100 uM by thioflavin-T fluorescence assay relative to control; design: scale not given: the % may be the effect or the level left
[5] = molecular target: Microtubule-associated protein tau (Homo sapiens) (UniProt P10636); test: Inhibition of tau K18 domain (unknown origin) assessed as inhibition of heparin-induced aggregation by measuring protein aggregation rate at 250 uM by thioflavin-T fluorescence assay relative to control; design: scale not given: the % may be the effect or the level left
[6] = molecular target: Microtubule-associated protein tau (Homo sapiens) (UniProt P10636); test: Inhibition of tau K18 domain (unknown origin) assessed as inhibition of heparin-induced aggregation by measuring protein aggregation rate at 500 uM by thioflavin-T fluorescence assay relative to control; design: scale not given: the % may be the effect or the level left
[7] = molecular target: Microtubule-associated protein tau (Homo sapiens) (UniProt P10636); test: Inhibition of tau K18 domain (unknown origin) assessed as inhibition of heparin-induced aggregation by measuring protein aggregation rate at 1000 uM by thioflavin-T fluorescence assay relative to control; design: scale not given: the % may be the effect or the level left
[8] = molecular target: Microtubule-associated protein tau (Homo sapiens) (UniProt P10636); test: Covalent binding affinity to tau K18 domain monomer (unknown origin) assessed as labelling at Cys291 residue incubated for 24 hrs and measured following trypsin digestion by LC-MS/MS analysis
[9] = molecular target: Microtubule-associated protein tau (Homo sapiens) (UniProt P10636); test: Covalent binding affinity to tau K18 domain monomer (unknown origin) assessed as labelling at Cys322 residue incubated for 24 hrs and measured following trypsin digestion by LC-MS/MS analysis
[10] = molecular target: Microtubule-associated protein tau (Homo sapiens) (UniProt P10636); test: Binding affinity to tau K18 domain (unknown origin) assessed as cysteine labelling at 250 uM incubated for 18 hrs by 15N-HSQC NMR spectroscopy
[11] = molecular target: Microtubule-associated protein tau (Homo sapiens) (UniProt P10636); test: Inhibition of tau K18 domain (unknown origin) assessed as inhibition of heparin-induced aggregation by measuring increase in brightness by transmission electron microscopy
[12] = molecular target: Microtubule-associated protein tau (Homo sapiens) (UniProt P10636); test: Inhibition of tau K18 domain (unknown origin) assessed as inhibition of heparin-induced aggregation by measuring reduction in intensity at 215 nm with random coil conformation by CD spectrometry

Chain of Microtubule-associated protein tau (Homo sapiens) (P10636 whole entry, the tested form may be a part): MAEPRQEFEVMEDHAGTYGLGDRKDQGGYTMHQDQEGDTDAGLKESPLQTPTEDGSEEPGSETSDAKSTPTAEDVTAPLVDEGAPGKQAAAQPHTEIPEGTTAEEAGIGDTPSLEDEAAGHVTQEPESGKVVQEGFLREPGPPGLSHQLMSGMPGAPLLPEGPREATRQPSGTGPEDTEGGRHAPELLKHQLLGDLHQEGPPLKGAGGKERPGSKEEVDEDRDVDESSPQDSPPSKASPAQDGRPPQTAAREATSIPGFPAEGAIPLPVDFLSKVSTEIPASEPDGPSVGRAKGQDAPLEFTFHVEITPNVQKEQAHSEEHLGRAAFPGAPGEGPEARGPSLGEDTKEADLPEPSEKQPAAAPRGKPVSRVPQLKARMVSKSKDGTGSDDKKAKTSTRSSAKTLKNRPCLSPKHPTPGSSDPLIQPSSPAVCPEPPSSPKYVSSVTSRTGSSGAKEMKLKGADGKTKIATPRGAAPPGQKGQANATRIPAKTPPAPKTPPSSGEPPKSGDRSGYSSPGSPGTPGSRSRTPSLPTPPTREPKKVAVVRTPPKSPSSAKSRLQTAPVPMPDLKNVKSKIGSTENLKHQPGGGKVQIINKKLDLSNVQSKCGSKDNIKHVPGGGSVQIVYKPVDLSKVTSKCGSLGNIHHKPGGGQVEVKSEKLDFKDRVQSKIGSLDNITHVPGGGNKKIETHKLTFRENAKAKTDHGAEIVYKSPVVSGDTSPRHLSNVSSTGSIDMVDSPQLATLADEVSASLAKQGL

Row | Compound | Activity [1] [%] | Activity (Homo sapiens) [%] | Activity [2] [%] | also measured
1 | C=CS(N)(=O)=O | 110 |  |  | 
2 | C=CS(=O)(=O)Cc1ccc(C(=O)c2ccccc2)cc1 | 97.3 |  |  | 
3 | C=CS(=O)(=O)Cc1cc(C(F)(F)F)cc(C(F)(F)F)c1 | 39.8 | 86.7 | 66.3 | Activity [3]: 94.4%; Activity [4]: 75.3%; Activity [5]: 62.9%; Activity [6]: 43.1%; Activity [7]: 39.8%; Activity [8]: Active; Activity [9]: Active; Activity [10]: Active
4 | C=CS(=O)(=O)Cc1ccc2ccccc2c1 | 111 |  |  | 
5 | C=CS(=O)(=O)NCCNC(=O)O[C@H]1CC[C@@]2(C)C(=CC[C@H]3[C@@H]4CC[C@H]([C@H](C)CCCC(C)C)[C@@]4(C)CC[C@@H]32)C1 | 39.7 | 100 | 56.7 | inhibition [11]: Active
6 | C=CS(=O)(=O)Cc1c2ccccc2cc2ccccc12 | 21.3 | 69.4 | 34.4 | Activity [3]: 78.2%; Activity [4]: 72%; Activity [5]: 54.1%; Activity [6]: 43.9%; Activity [7]: 21.3%; Activity [8]: Active; Activity [9]: Active
7 | C=CS(=O)(=O)Cc1cccc2cccnc12 | 102 |  |  | 
8 | C=CS(=O)(=O)c1ccccc1 | 97.7 |  |  | 
9 | C=CS(=O)(=O)c1cc(C(F)(F)F)cc(C(F)(F)F)c1 | 107 |  |  | 
10 | C=CS(=O)(=O)Nc1ccc(C(=O)NCCCCCC(=O)N[C@@H](CCC(=O)O)C(=O)N[C@@H](C)C(=O)N[C@@H](C)C(=O)N[C@@H](CCC(=O)O)C(=O)N[C@@H](C)C(=O)N[C@@H](CCCCN)C(=O)N[C@@H](C)C(=O)N[C@@H](C)C(=O)NC(CCCCn2cc(CNC(=O)[C@H](Cc3c[nH]c4ccccc34)NC3C(=O)c4ccccc4C(=O)C3Cl)nn2)C(=O)O)cc1 (stereo partly drawn) | 15.7 | 57.9 | 39.7 | Activity [8]: Active; inhibition [11]: Active
11 | H-DVWMINKKRK-OH | 38.1 | 29.4 |  | 
12 | C=CS(=O)(=O)Cc1ccc(-c2ccc(/C=C3/SC(=S)N(CCC(=O)OCC)C3=O)o2)cc1 | 29.2 | 83.4 | 44.7 | Activity [3]: 75.4%; Activity [4]: 60.3%; Activity [5]: 50.8%; Activity [6]: 40.1%; Activity [7]: 29.2%; inhibition [12]: Active
13 | C=CS(=O)(=O)NCc1cc(C(F)(F)F)cc(C(F)(F)F)c1 | 96.9 |  |  | 
